# In ChEMBL document CHEMBL1149203, “Design, synthesis, and characterization of an ATP-peptide conjugate inhibitor of protein kinase A” (Bioorg Med Chem Lett, 2004):
# Target: cAMP-dependent protein kinase (PKA) (Homo sapiens, UniProt P22694+P17612+P22612)
# Assay: Inhibition of protein kinase A expressed in Escherichia coli
structure (smiles),measurement,value
CC(=O)N[C@@H](CC(C)C)C(=O)N[C@@H](CCCN=C(N)N)C(=O)N[C@@H](CCCN=C(N)N)C(=O)N[C@@H](C)C(=O)NC(CNC(=O)CSP(=O)(O)OP(=O)(O)OP(=O)(O)OC[C@H]1O[C@@H](n2cnc3c(N)ncnc32)[C@H](O)[C@@H]1O)C(=O)N[C@@H](CC(C)C)C(=O)NCC(=O)O (stereo partly specified),Ki,3.8 µM
